Laboratory results as given in the NIST ThermoML archive (doi:10.1016/j.tca.2013.08.016).

Key:
[1] = refractive index (Na D-line) (dimensionless); φn = volume fraction of the nth substance listed; settings: 101 kPa, Liquid, Standard Abbe refractometry
[2] = refractive index (Na D-line) (dimensionless); settings: 101.33 kPa, Liquid, Standard Abbe refractometry

CCCC[n+]1ccccc1.F[B-](F)(F)F [1-butylpyridinium tetrafluoroborate] + CCO
[1]
Settings	refractive index
303.15 K, φ1 = 0.0806	1.36595
303.15 K, φ1 = 0.1412	1.37218
303.15 K, φ1 = 0.2622	1.3839
303.15 K, φ1 = 0.3554	1.39236
303.15 K, φ1 = 0.4323	1.39905
303.15 K, φ1 = 0.561	1.40993
303.15 K, φ1 = 0.6685	1.41861
303.15 K, φ1 = 0.7512	1.42527
303.15 K, φ1 = 0.8213	1.43076
303.15 K, φ1 = 0.8742	1.43497
303.15 K, φ1 = 0.9217	1.43861
303.15 K, φ1 = 0.9612	1.44158
303.15 K, φ1 = 1	1.44454
313.15 K, φ1 = 0.0802	1.36207
313.15 K, φ1 = 0.1405	1.36844
313.15 K, φ1 = 0.2611	1.38045
313.15 K, φ1 = 0.3541	1.389
313.15 K, φ1 = 0.4308	1.39575
313.15 K, φ1 = 0.5595	1.40676
313.15 K, φ1 = 0.6672	1.4156
313.15 K, φ1 = 0.7501	1.42236
313.15 K, φ1 = 0.8205	1.42796
313.15 K, φ1 = 0.8736	1.43225
313.15 K, φ1 = 0.9213	1.43596
313.15 K, φ1 = 0.961	1.43898
313.15 K, φ1 = 1	1.4419
323.15 K, φ1 = 0.0798	1.35794
323.15 K, φ1 = 0.1398	1.3646
323.15 K, φ1 = 0.26	1.37704
323.15 K, φ1 = 0.3528	1.38573
323.15 K, φ1 = 0.4294	1.39254
323.15 K, φ1 = 0.5581	1.40354
323.15 K, φ1 = 0.6659	1.41255
323.15 K, φ1 = 0.749	1.41938
323.15 K, φ1 = 0.8196	1.42508
323.15 K, φ1 = 0.8729	1.42947
323.15 K, φ1 = 0.9209	1.43328
323.15 K, φ1 = 0.9607	1.43633
323.15 K, φ1 = 1	1.43924

CCCC[n+]1ccccc1.F[B-](F)(F)F [1-butylpyridinium tetrafluoroborate] + CO
[1]
Settings	refractive index
293.15 K, φ1 = 0.0747	1.33926
293.15 K, φ1 = 0.1041	1.34327
293.15 K, φ1 = 0.2013	1.35648
293.15 K, φ1 = 0.3315	1.37286
293.15 K, φ1 = 0.4125	1.38271
293.15 K, φ1 = 0.5222	1.39563
293.15 K, φ1 = 0.6527	1.41047
293.15 K, φ1 = 0.7475	1.42106
293.15 K, φ1 = 0.8152	1.42843
293.15 K, φ1 = 0.8666	1.43377
293.15 K, φ1 = 0.9113	1.43844
293.15 K, φ1 = 0.9687	1.44425
293.15 K, φ1 = 1	1.44719
303.15 K, φ1 = 0.0742	1.3354
303.15 K, φ1 = 0.1035	1.33949
303.15 K, φ1 = 0.2002	1.35293
303.15 K, φ1 = 0.3301	1.36955
303.15 K, φ1 = 0.411	1.37949
303.15 K, φ1 = 0.5206	1.39258
303.15 K, φ1 = 0.6513	1.40757
303.15 K, φ1 = 0.7463	1.41824
303.15 K, φ1 = 0.8142	1.42561
303.15 K, φ1 = 0.8658	1.43105
303.15 K, φ1 = 0.9108	1.43576
303.15 K, φ1 = 0.9685	1.4416
303.15 K, φ1 = 1	1.44454
313.15 K, φ1 = 0.0737	1.33144
313.15 K, φ1 = 0.1028	1.33587
313.15 K, φ1 = 0.1991	1.34941
313.15 K, φ1 = 0.3286	1.36646
313.15 K, φ1 = 0.4096	1.3765
313.15 K, φ1 = 0.5189	1.38958
313.15 K, φ1 = 0.6498	1.40471
313.15 K, φ1 = 0.745	1.41542
313.15 K, φ1 = 0.8132	1.42273
313.15 K, φ1 = 0.865	1.42832
313.15 K, φ1 = 0.9103	1.433
313.15 K, φ1 = 0.9683	1.43897
313.15 K, φ1 = 1	1.4419
323.15 K, φ1 = 0.0732	1.32837
323.15 K, φ1 = 0.1022	1.33278
323.15 K, φ1 = 0.1981	1.3469
323.15 K, φ1 = 0.3271	1.3641
323.15 K, φ1 = 0.408	1.37436
323.15 K, φ1 = 0.5172	1.38733
323.15 K, φ1 = 0.6482	1.40238
323.15 K, φ1 = 0.7438	1.41283
323.15 K, φ1 = 0.8122	1.42002
323.15 K, φ1 = 0.8642	1.42546
323.15 K, φ1 = 0.9097	1.43029
323.15 K, φ1 = 0.9681	1.43614
323.15 K, φ1 = 1	1.43924

CCO [ethanol]
[2]
Settings	refractive index
293.15 K	1.36144
303.15 K	1.35702
313.15 K	1.3527
323.15 K	1.34837

CCO [ethanol] + CCCC[n+]1ccc(C)cc1.F[B-](F)(F)F
[1], φ2 = 0
Settings	refractive index
293.15 K	1.36144
303.15 K	1.35702
313.15 K	1.3527
323.15 K	1.34837

CCO [ethanol] + CCCC[n+]1cccc(C)c1.F[B-](F)(F)F
[1], φ2 = 0
Settings	refractive index
293.15 K	1.36144
303.15 K	1.35702
313.15 K	1.3527
323.15 K	1.34837

CCO [ethanol] + CCCC[n+]1ccccc1.F[B-](F)(F)F
[1], φ2 = 0
Settings	refractive index
303.15 K	1.35702
313.15 K	1.3527
323.15 K	1.34837

CO [methanol]
[2]
Settings	refractive index
293.15 K	1.32843
303.15 K	1.32433
313.15 K	1.32015
323.15 K	1.3167

CO [methanol] + CCCC[n+]1ccc(C)cc1.F[B-](F)(F)F
[1], φ2 = 0
Settings	refractive index
293.15 K	1.32843
303.15 K	1.32433
313.15 K	1.32015
323.15 K	1.3167

CO [methanol] + CCCC[n+]1cccc(C)c1.F[B-](F)(F)F
[1], φ2 = 0
Settings	refractive index
293.15 K	1.32843
303.15 K	1.32433
313.15 K	1.32015
323.15 K	1.3167

CO [methanol] + CCCC[n+]1ccccc1.F[B-](F)(F)F
[1], φ2 = 0
Settings	refractive index
293.15 K	1.32843
303.15 K	1.32433
313.15 K	1.32015
323.15 K	1.3167
